Source: patent US20220168310A1, “INHIBITION OF ADENOVIRUS WITH FILOCICLOVIR” (Microbiotix, Inc., priority 2019, published 2022)

How the values were obtained:
adenovirus = assay: Dose-dependent inhibition of adenovirus infection (summary statement); format: cell-based; conditions: unidentified adenovirus
AdV5 = assay: Immunofluorescence assay (DBP and hexon staining), AdV5-infected A549 cells; format: cell-based, human adenovirus; conditions: 27 hours post-infection
Protocol: Human A549 cells on glass coverslips in 6-well plates were infected at an MOI of 5 PFU/cell with either AdV5 or AdV6 or were mock-infected. After 1 hour, filociclovir was added to a final concentration of 0, 4, 10, or 40 μM. At 27 hours post-infection, the A549 cells were fixed in paraformaldehyde (3.7% in PBS) and permeabilized with methanol. Cells were stained for the Adenovirus DNA-binding protein and adenovirus hexon. DBP staining will be […] and uniform during early AdV infection (prior to AdV DNA replication). DBP associates with replication centers as the infection progresses. The replication centers are initially small “dots” (each dot results from one incoming AdV genome). The replication centers will expand and “multiply” as DNA replication takes place. The nuclei become enlarged and misshapen as infection progresses. AdV hexon, the most abundant component of the AdV viral capsid, is not expressed until after DNA replication is taking place and is therefore considered to be a “late” AdV protein.

[1] = Cytotoxicity, CellTiter-Glo cell viability assay in HFF cells; conditions: human, human foreskin fibroblast (HFF) cell monolayers
Protocol: Human foreskin tissue was obtained from the University of Alabama at Birmingham tissue procurement facility with approval from the Institutional Review Board. The tissue was stored at 4° C. in cell culture medium consisting of minimum essential media (MEM) with Earle's salts supplemented with 10% fetal bovine serum (FBS; HyClone, Inc., Logan, Utah) and standard concentration of L-glutamine, amphotericin B (Fungizone), and vancomycin. The tissue was then placed in a phosphate-buffered saline solution, minced, and rinsed to remove the red blood cells. Tissue fragments were then resuspended in a trypsin-EDTA solution and incubated at 37° C. to disperse the cells, which were then collected by centrifugation. Cell pellets were then resuspended in 4 ml culture medium, placed in a 25-cm^2 tissue culture flask, and incubated at 37° C. for 24 h. The culture medium was then replaced with fresh medium and condition of the cells was monitored daily until a confluent cell monolayer was formed. The HFF cells were then expanded through serial passages in standard growth medium of MEM with Earle's salts supplemented with 10% FBS, L-glutamine, penicillin, and gentamicin. Each lot of cells was confirmed to be free of mycoplasma infection and routinely passaged or used for assays at or before passage 10.
Antiviral and cytotoxicity data were obtained in a series of three to five separate experiments for each virus to provide an accurate estimate of antiviral activity and statistical data. Each assay included positive and negative control compounds as well as infected and uninfected controls to ensure the integrity of the experiment.
The CPE reduction assays were performed in monolayers of human foreskin fibroblast (HFF) cells (5000/well) in 384-well plates in assay media consisting of MEM with Earle's salts, 2% FBS and standard concentrations of L-glutamine, penicillin and gentamycin. 5000 cells were seeded in 384-well microtiter plates and incubated at 37° C. in a humidified 5% CO2 incubator for 24 hours to allow for formation of confluent monolayers.
Cell monolayers were infected at a multiplicity of infection (MOI) of approximately 0.005 PFU/cell with virus strains including AdV5. […] Cytopathology was determined by the addition of CellTiter-Glo® reagent (Promega, Madison, Wis.). Concentrations of antiviral test compounds sufficient to reduce CPE by 50% (EC50) were interpolated from the experimental data using standard methods in Microsoft® Excel.

Human AdV6 = assay: High dose filociclovir against intravenously administered AdV6 in immunosuppressed hamsters (Example 5); conditions: for mortality: p=0.0124 vs AdV6+Vehicle; for virus burden in the liver: TCID50
Protocol: Four dose levels were tested: 10, 30, 60, and 100 mg/kg p.o. q.d. The highest dose was determined based on rat toxicology data.
All hamsters were immunosuppressed using cyclophosphamide (CP). CP was administered intraperitoneally at a dose of 140 mg/kg, and then twice weekly at a dose of 100 mg/kg.
Filociclovir, in powdered form, was suspended in 0.4% carboxymethyl cellulose (Sigma C5678) at 1, 3, 6, and 10 mg/ml and sonicated to visual homogeneity and aliquots stored at 4° C. Aliquots were allowed to equilibrate to room temperature before dosing. Hamsters weighing approximately 100 g were dosed with a 1 ml volume of the appropriate suspension for the 10, 30, 60, and 100 mg/kg dose levels. References to “vehicle” refers to 0.4% carboxymethyl cellulose
The hamsters were divided into 8 groups, 15 hamsters/group, (with the exception of Group 2, which had only 5 hamsters; see Table 3), immunosuppressed, and then injected i.v. with vehicle (Groups 1-2) or 2×10^10 PFU/kg of AdV6 (Groups […]). Groups 1 and 3 received drug vehicle (p.o. q.d.), Group 4 received 10 mg/kg filociclovir (p.o. q.d.), Group 5 received 30 mg/kg filociclovir (p.o. q.d.), Group 6 received 60 mg/kg filociclovir (p.o. q.d.), Groups 2 and 7 received 100 mg/kg filociclovir (p.o. q.d.), and Group 8 received cidofovir (20 mg/kg, 3 times weekly). For all groups, drug administration started 1 day before challenge, and continued according to the schedule above for the duration of the study.
The body weights and any signs of morbidity of the animals were recorded daily. At 5 days post challenge, 5 hamsters (designated at the start of the experiment) from each group (with the exception of Group 2) were sacrificed, and gross pathological observation was performed. Serum and liver samples were collected and the virus burden in liver was determined by a TCID50 assay, and the serum was analyzed for transaminase levels. The remaining 10 hamsters were sacrificed at 14 days post challenge. Hamsters that became visually moribund before Day 14 were sacrificed as needed. In addition to the hamsters observed to be moribund, all hamsters that lost more than 20% of their original body weight were also sacrificed. For the hamsters sacrificed at the conclusion of the experiment and those sacrificed as moribund, serum and liver tissues were collected and banked for possible determination of serum transaminase levels and virus burden in the liver. Liver tissue was preserved in formalin for possible histopathological examination.

Question: With Nc1nc2c(ncn2/C=C2/CC2(CO)CO)c(=O)[nH]1 [FCV, 2-amino-9-{(Z)-[2,2-bis(hydroxymethyl)cyclopropylidene]methyl}-3,9-dihydro-6H-purin-6-one] as the molecule, how does the IC50 (adenovirus) read?
Answer: ≤ 5 µM

Question: And the hexon-positive cells (AdV5; AdV5, 4 μM)?
Answer: Some hexon-positive cells

Question: And the hexon-positive cells (AdV5; AdV5, 10 μM)?
Answer: extremely few hexon-positive cells

Question: What about the hexon-positive cells (AdV5; AdV5, 40 μM) of the same molecule?
Answer: No hexon-positive cells

Question: And the CC50 ([1]; CC50, AdV6 line of Table 2, unit inferred)?
Answer: > 100 µM

Question: And the CC50 ([1]; CC50, AdV7 line of Table 2, unit inferred)?
Answer: > 150 µM

Question: And the CC50 ([1]; CC50, AdV8 line of Table 2, unit inferred)?
Answer: > 150 µM

Question: What about the CC50 ([1]; CC50, HFF cells, run with AdV5 assay, average and SD from five independent experiments) of the same molecule?
Answer: 95 ± 10.6 µM

Question: What about the CC50 ([1]; mammalian cytotoxicity (CC50), summary statement, 'preferably') of the same molecule?
Answer: 100 to 150 µM

Question: What about the body weight loss (Human AdV6; 10 mg/kg p.o. q.d.) of the same molecule?
Answer: reversed

Question: What about the mortality (Human AdV6; 10 mg/kg p.o. q.d.) of the same molecule?
Answer: prevented mortality

Question: And the “virus burden in the liver” value (Human AdV6; 10 mg/kg, 5 days post challenge)?
Answer: one animal in the AdV6+10 mg/kg filociclovir group with a very low liver virus burden

Question: And the body weight loss (Human AdV6; 30 mg/kg p.o. q.d.)?
Answer: reversed

Question: What about the mortality (Human AdV6; 30 mg/kg p.o. q.d.) of the same molecule?
Answer: prevented mortality

Question: And the “virus burden in the liver” value (Human AdV6; 30 mg/kg, 5 days post challenge)?
Answer: nondetectable level

Question: What about the “toxicity for AdV6-infected hamsters” value (Human AdV6; 60 mg/kg p.o. q.d.) of the same molecule?
Answer: toxic

Question: What about the “toxicity for AdV6-infected hamsters” value (Human AdV6; 100 mg/kg p.o. q.d.) of the same molecule?
Answer: toxic

Question: And the “animals with elevated serum transaminase levels (ALT)” value (Human AdV6; 5 days post challenge, filociclovir p.o. q.d. groups, CDV 20 mg/kg 3 times weekly)?
Answer: none

Question: What about the “kidney pathology at day 5 sacrifice” value (Human AdV6; AdV6+60 mg/kg) of the same molecule?
Answer: extensive kidney pathology

Question: And the “kidney pathology at day 5 sacrifice” value (Human AdV6; AdV6+100 mg/kg)?
Answer: extensive kidney pathology
